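Following 48 hours of exposure in 96-well plates, responses at five concentrations were used to interpolate endpoints linearly. GI50 marks 50% less growth. TGI: concentration producing complete growth inhibition.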
Assays:
Assay in all cases: growth of human tumour cells (NCI), 48 h
[1] = tested on: 786-0 renal
[2] = tested on: HS 578T breast
[3] = tested on: M14 melanoma
[4] = tested on: MCF7 breast
[5] = tested on: SF-295 CNS
[6] = tested on: SF-539 CNS
[7] = tested on: SK-MEL-5 melanoma
[8] = tested on: SN12C renal
[9] = tested on: UACC-62 melanoma

Row | Compound | GI50 [1] | TGI [1] | GI50 [2] | TGI [2] | GI50 [3] | TGI [3] | GI50 [4] | TGI [4] | GI50 [5] | TGI [5] | GI50 [6] | TGI [6] | GI50 [7] | TGI [7] | GI50 [8] | TGI [8] | GI50 [9] | TGI [9]
1 | CC(C)n1cc(-c2ccc3c(c2)N(C)CC3)c2c(NS(=O)(=O)c3ccn(C)n3)ccnc21 | 43.7 µM | > 100 µM | 37 µM | > 100 µM | 44.5 µM | > 100 µM | 31.5 µM | > 100 µM | 27.4 µM | > 100 µM | 64.4 µM | > 100 µM | 37.4 µM | > 100 µM | 91.8 µM | > 100 µM | 36.7 µM | > 100 µM
2 | COc1ccc(C2=C(c3ccccc3)C(=O)N3CCCC3C2)cc1 (stereo not given) | 1.13 µM | > 100 µM | > 100 µM | > 100 µM | 9.54 µM | > 100 µM | 2.98 µM | > 100 µM | 2.11 µM | > 100 µM | 3.11 µM | 98.2 µM | 3.17 µM | > 100 µM | 13 µM | > 100 µM | 1.92 µM | > 100 µM
3 | CCOC(=O)C1=C(C)NC2SC(=O)/C(=C\c3cccc(Cl)c3)N2C1c1ccccc1 (stereo not given) | > 100 µM | > 100 µM | 90.4 µM | > 100 µM | > 100 µM | > 100 µM | 31.2 µM | > 100 µM | > 100 µM | > 100 µM | > 100 µM | > 100 µM | 58.7 µM | > 100 µM | > 100 µM | > 100 µM | > 100 µM | > 100 µM
4 | C#CN1C(=O)c2c(c(-c3ccccc3)c(-c3ccc(Oc4ccc(-c5c(-c6ccccc6)c6c(c(-c7ccccc7)c5-c5ccccc5)C(=O)N(C#C)C6=O)cc4)cc3)c(-c3ccccc3)c2-c2ccccc2)C1=O | – | > 100 µM | – | – | – | > 100 µM | – | – | – | > 100 µM | – | > 100 µM | – | > 100 µM | – | > 100 µM | – | > 100 µM
5 | C[n+]1cccc(NC(=O)c2ccc3ccc4ccc(C(=O)Nc5ccc[n+](C)c5)nc4c3n2)c1 | 8.99 µM | > 100 µM | 4.51 µM | > 68.6 µM | 3.67 µM | > 100 µM | 2.35 µM | > 100 µM | 2.59 µM | 25.3 µM | 3.33 µM | 15.6 µM | – | – | 0.157 µM | 1.32 µM | 0.357 µM | 2.05 µM
6 | C[C@@H](NC1CCCC[C@@H]1O)c1ccccc1 (stereo not given in full) | – | > 100 µM | – | – | – | > 100 µM | – | – | – | > 100 µM | – | – | – | > 100 µM | – | > 100 µM | – | > 100 µM
7 | CC(=O)[O-].CC(=O)[O-].O=C([CH-]C(=O)c1ccccc1)c1ccccc1.[Nd+3].[OH3+] | 19.4 µM | 63.9 µM | – | – | 20.7 µM | 53 µM | – | – | 10.7 µM | 35.2 µM | 31.6 µM | 93.5 µM | 14.5 µM | 33.9 µM | 23.5 µM | 92.3 µM | 16.5 µM | 48.6 µM
8 | Cc1ccc(C2=NN(c3ccc(S(=O)(=O)NC(=O)NCc4ccccc4)cc3)C(c3ccc(N(C)C)cc3)C2)c(C)c1 (stereo not given) | 4.37 µM | 36.1 µM | 2.48 µM | 7.02 µM | 3.57 µM | 23.4 µM | 2.99 µM | 31.2 µM | – | – | 2.43 µM | 6.02 µM | 2.32 µM | 5.62 µM | 3.35 µM | 61.5 µM | 2.5 µM | 6.8 µM
9 | CCCCCOC(=O)Nc1nc(=O)n(C2OC(C)C(O)C2O)cc1F (stereo not given) | > 10000 µM | > 10000 µM | – | – | > 10000 µM | > 10000 µM | – | – | > 10000 µM | > 10000 µM | > 10000 µM | > 10000 µM | 338 µM | > 10000 µM | > 10000 µM | > 10000 µM | – | –
10 | Cc1ccc(NC(=S)NNC(=S)Nc2ccc(C)cc2)cc1 | 51.3 µM | > 100 µM | 4.6 µM | > 100 µM | 3.54 µM | > 100 µM | 3.75 µM | > 100 µM | 3.16 µM | > 100 µM | 5.46 µM | > 100 µM | 4.36 µM | > 100 µM | – | – | 5.17 µM | > 100 µM
11 | CC(=O)OC(C(=O)[O][Ge]([CH3])([CH3])[CH3])c1ccccc1 (stereo not given) | > 100 µM | > 100 µM | – | – | > 100 µM | > 100 µM | – | – | > 100 µM | > 100 µM | > 100 µM | > 100 µM | > 100 µM | > 100 µM | > 100 µM | > 100 µM | > 100 µM | > 100 µM
12 | CC[O-].CC[O-].O=C1C=C([O-])C(=O)c2ccccc21.O=C1C=C([O-])C(=O)c2ccccc21.[Ti+4] | > 100 µM | > 100 µM | – | – | 8.52 µM | > 100 µM | – | – | – | > 100 µM | 100 µM | > 100 µM | 3.07 µM | 55.9 µM | > 100 µM | > 100 µM | 21.5 µM | > 100 µM
13 | CCOC(=O)C(C(=O)OCC)=C1C=C(c2ccccc2)c2ccccc21 | – | > 100 µM | – | – | – | > 100 µM | – | – | – | > 100 µM | – | > 100 µM | – | > 100 µM | – | > 100 µM | – | > 100 µM

Reference: PubChem BioAssay (NCI)
